In PubChem BioAssay (NCI) one finds TGI and GI50 data, which are given here for 24 compounds.

Structures are written as SMILES.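 In this assay, cells in 96-well plates receive the compound at five concentrations for 48 hours. Endpoints are linearly interpolated between the surrounding concentrations. GI50: concentration for 50% inhibition of growth. TGI is the concentration that stops growth completely.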 A value given as a limit tells only on which side of the number the result lay.

The subject of one test is MALME-3M melanoma. The experiment in a line: growth of human tumour cells (NCI), 48 h.
`CCN(CC)c1c(C(=O)/C=C/c2ccc(OC)cc2)c(-c2ccccc2)nn(C)c1=O` yielded a TGI of 35.1 µM.
Turning to `CN1C(=Nc2ccccc2)SC1=Nc1ccccc1`, the TGI was found to be 94.3 µM.
Same read-out and setting: the same measure for `O=C(O)C(/C=C/c1ccccc1)c1ccccc1` (stereo unspecified): above 100 µM; for `Oc1ccccc1/C=C/c1csnn1`: above 100 µM; for `CP1(=O)CCCCC1`: above 100 µM.
`Cc1ccc(S(=O)(=O)OC2CSS(=O)CC2OS(=O)(=O)c2ccc(C)cc2)cc1` (stereo unspecified) gave a TGI of 27.8 µM.
On the same count and under the same terms, the result for `O=[N+]([O-])c1cc(C(F)(F)F)cc([N+](=O)[O-])c1CCl` reads 13.1 µM; that for `CCOC(=O)N1CCN(C=S)CC1`, above 100 µM; that for `Oc1c(C(Nc2cccc3cccnc23)c2ccccc2)ccc2cccnc12` (stereo unspecified), above 100 µM.
The same measure, in the same setting: the same measure for `COc1ccc(Br)c(N/N=C2\CCCNC2=O)c1`: above 100 µM.
Take `COc1cc2c(c(OC)c1OC)-c1ccc(SC)c(=O)cc1C(CO)C2` (stereo unspecified): the GI50 is below 0.01 µM.
For the compound `CC(C)C1CC[C@@H](C)C[C@@]1(O)CC(N)=O` (stereo partly specified), the TGI was above 100 µM.
`CCC[CH2][Sn]1([CH2]CCC)[O]C(=O)c2cccnc2[O]1`: the GI50 is 1.56 µM and the TGI amounted to 4.11 µM.
As for `COC1CC(OS(=O)(=O)c2ccc([N+](=O)[O-])cc2)C(OC(=O)c2ccccc2)C(C)O1` (stereo unspecified), the TGI is above 100 µM.
Still for that read-out and setting: the same measure for `CCOc1ccccc1N1C(=O)C(=O)C(c2nc3ccccc3o2)C(=O)C1=O`: above 100 µM; for `CCS(CC)(CC)CC1CCCC2=CCC(P(=O)(c3ccccc3)c3ccccc3)CC21` (stereo unspecified): 40 µM.
On to `CC(C)(C)n1cc(-c2ccnc(NCCCNS(=O)(=O)c3ccc(C(F)(F)F)cc3)c2)c(-c2cccc(O)c2)n1`, for which the GI50 is 1.72 µM and the TGI stood at 3.38 µM.
As for `Cn1cc(C(=O)NCCC(=N)N)cc1NC(=O)C1=[N+](C)C=C(NC(=O)c2cccc(C(=O)NC3=CC(C(=O)Nc4cc(C(=O)NCCC(=N)N)cn4C)=[N+](C)C3)c2)C1`, the TGI was above 100 µM.
For `C=C1C(=O)O[C@H]2[C@H]1CC/C(COC(=O)NCc1ccc(Cn3c(=O)sn(CCCl)c3=O)cc1)=C\CC[C@@]1(C)O[C@@H]21`, the GI50 is 1.72 µM and the TGI amounted to 3.46 µM.
In the same order, the values of `COc1ccc2c(c1)c(=O)oc1cc(OC/C(C)=N\O)ccc12` are above 100 µM and above 100 µM.

A further test deals with UACC-62 melanoma. The experiment in a line: growth of human tumour cells (NCI), 48 h.
`CCN(CC)c1c(C(=O)/C=C/c2ccc(OC)cc2)c(-c2ccccc2)nn(C)c1=O` returned a TGI of 28.5 µM.
On the same count and under the same terms, the same measure for `CN1C(=Nc2ccccc2)SC1=Nc1ccccc1`: above 100 µM; for `O=C(O)C(/C=C/c1ccccc1)c1ccccc1` (stereo unspecified): above 100 µM; for `Oc1ccccc1/C=C/c1csnn1`: above 100 µM.
Still for that read-out and setting: the same measure for `CP1(=O)CCCCC1`: above 100 µM; for `Cc1ccc(S(=O)(=O)OC2CSS(=O)CC2OS(=O)(=O)c2ccc(C)cc2)cc1` (stereo unspecified): 29.2 µM.
Regarding `COc1cc2c(cc1C)NC(=O)/C2=C/c1ccccn1`, the GI50 was 2.85 µM and the TGI worked out at 13.9 µM.
For `O=[N+]([O-])c1cc(C(F)(F)F)cc([N+](=O)[O-])c1CCl`, the TGI turned out to be 1.21 µM.
On the same count and under the same terms, the result for `CCOC(=O)N1CCN(C=S)CC1` reads above 100 µM; that for `COc1cc2ccc(/C=C\[N+](=O)[O-])cc2cc1OC`, 21.7 µM.
On to `COc1cc([C@@H]2OC[C@@H]3C(c4cc(OC)c5c(c4)OCO5)OC[C@@H]32)cc(OC)c1OC` (stereo partly specified), for which the TGI was above 100 µM.
On the same count and under the same terms, the result for `Oc1c(C(Nc2cccc3cccnc23)c2ccccc2)ccc2cccnc12` (stereo unspecified) reads above 100 µM.
For `COc1ccc(/C(COc2ccc3c(=O)cc(-c4ccccc4)oc3c2)=N\O)cc1`, the GI50 was 10.9 µM and the TGI worked out at 31.4 µM.
Consider `COc1ccc(Br)c(N/N=C2\CCCNC2=O)c1`, for which the TGI was above 100 µM.
As to `COc1cc2c(c(OC)c1OC)-c1ccc(SC)c(=O)cc1C(CO)C2` (stereo unspecified), the GI50 is below 0.01 µM and the TGI is 15.7 µM.
Consider `CC(C)C1CC[C@@H](C)C[C@@]1(O)CC(N)=O` (stereo partly specified), for which the TGI is above 100 µM.
Take `CCC[CH2][Sn]1([CH2]CCC)[O]C(=O)c2cccnc2[O]1`: the GI50 is 1.8 µM and the TGI amounted to 3.94 µM.
Consider `COC1CC(OS(=O)(=O)c2ccc([N+](=O)[O-])cc2)C(OC(=O)c2ccccc2)C(C)O1` (stereo unspecified), for which the TGI is above 100 µM.
On the same count and under the same terms, the result for `CCOc1ccccc1N1C(=O)C(=O)C(c2nc3ccccc3o2)C(=O)C1=O` reads above 100 µM.
Still for that read-out and setting: the result for `CCS(CC)(CC)CC1CCCC2=CCC(P(=O)(c3ccccc3)c3ccccc3)CC21` (stereo unspecified) reads 13.5 µM.
Take `CC(C)(C)n1cc(-c2ccnc(NCCCNS(=O)(=O)c3ccc(C(F)(F)F)cc3)c2)c(-c2cccc(O)c2)n1`: the GI50 is 1.69 µM and the TGI was determined as 3.23 µM.
The compound `Cn1cc(C(=O)NCCC(=N)N)cc1NC(=O)C1=[N+](C)C=C(NC(=O)c2cccc(C(=O)NC3=CC(C(=O)Nc4cc(C(=O)NCCC(=N)N)cn4C)=[N+](C)C3)c2)C1` showed a TGI above 100 µM.
As to `C=C1C(=O)O[C@H]2[C@H]1CC/C(COC(=O)NCc1ccc(Cn3c(=O)sn(CCCl)c3=O)cc1)=C\CC[C@@]1(C)O[C@@H]21`, the GI50 was 1.86 µM and the TGI came to 3.95 µM.
In the case of `COc1ccc2c(c1)c(=O)oc1cc(OC/C(C)=N\O)ccc12`, the GI50 is 75.5 µM and the TGI is above 100 µM.

A further test deals with RPMI-8226 leukemia. Kind of test: growth of human tumour cells (NCI), 48 h.
In turn, `CN1C(=Nc2ccccc2)SC1=Nc1ccccc1` displayed a TGI above 100 µM.
Still for that read-out and setting: the result for `O=C(O)C(/C=C/c1ccccc1)c1ccccc1` (stereo unspecified) reads above 100 µM.
For `Oc1ccccc1/C=C/c1csnn1`, the TGI was above 100 µM.
Still for that read-out and setting: the same measure for `CP1(=O)CCCCC1`: above 100 µM; for `Cc1ccc(S(=O)(=O)OC2CSS(=O)CC2OS(=O)(=O)c2ccc(C)cc2)cc1` (stereo unspecified): 27.6 µM.
As for `COc1cc2c(cc1C)NC(=O)/C2=C/c1ccccn1`, the GI50 is 3.93 µM and the TGI is above 100 µM.
Consider `O=[N+]([O-])c1cc(C(F)(F)F)cc([N+](=O)[O-])c1CCl`, for which the TGI turned out to be 3.49 µM.
Still for that read-out and setting: the same measure for `COc1cc2ccc(/C=C\[N+](=O)[O-])cc2cc1OC`: 5.44 µM; for `COc1cc([C@@H]2OC[C@@H]3C(c4cc(OC)c5c(c4)OCO5)OC[C@@H]32)cc(OC)c1OC` (stereo partly specified): above 100 µM.
Still for that read-out and setting: the same measure for `Oc1c(C(Nc2cccc3cccnc23)c2ccccc2)ccc2cccnc12` (stereo unspecified): above 100 µM.
